Consider one molecule from patent US6878701B2, “Potassium channel blocking agents” (Neurosearch A/S, priority 1999, dated 2005).

The IC50 is the concentration at which inhibition is half-maximal.

The target of the test is T1, small-conductance Ca2+-activated K+ channels (SK channels, isoform 2) (Rattus norvegicus, UniProt P70604).
T1 construct: expressed in transfected cells; host or cells: HEK293
Briefly: Whole-cell patch-clamp recording of SK channel current in stably transfected HEK293 cells. Format: cell-based. Conditions: rat SK2 stably expressed in HEK293 cells, room temperature, IC50 = Koff/Kon from kinetics of the block, read-out: biological activity determined as IC50. How it is done: In this experiment. small-conductance Ca^2+-activated K^+ channels (SK channels, isoform 2) cloned from a rat cDNA library were stably expressed in HEK293 cells using standard procedures. The ionic current through the channels was recorded in the whole-cell mode of the patch-clamp technique.
Cells plated on coverstips are placed in a 15 μl perfusion chamber (flowrate ˜1 ml/min), mounted on a IMT-2 microscope equipped with Nomarski or Hoffmann optics. The microscopes are placed on vibration-free tables in grounded Faraday cages.
All experiments are performed at room temperature (20-22° C.). […] Data are stored directly on the harddisk and analysed by the IGOR software according to the manufacturer's instructions.
The whole-cell configuration of the patch clamp technique is applied. […] Cell capacitance is electronically compensated and the resistance between the pipette and the cell interior (the series resistance, Rs) is measured and compensated for. […]
In the experiments where the effect of channel activators is quantified (test 475), the intracellular (pipette) solution has the following composition (concentration in mM):
The calculated free concentration of Ca^2+ in this solution is 100 nM, and that of Mg^2+ is 1 mM. In these experiments, the concentration of CaCl2 is 7.6 mM and that of MgCl2 is 1.2 mM to give calculated free concentrations of 300 nM and 1 mM, respectively. […]
On the technique in general: The patch-clamp technique gives a direct electrical read-out from membranes.

Consider `CN1CCN(C)c2nc(c3ccccc3n2)NCC2CCCC(CNc3nc1nc1ccccc31)C2` [Compound 2, 20,23-dimethyl-2,10,18,20,23,25,32,33-octaazahexacyclo [22.7.1.1^4.8.1^11,19.0^12,17.0^26,31] tetratriaconta-1(32).11,13,15,17,19(33),24,26,28,30-decaene], for which the IC50 was less than 1 µM.
